The term IC50 denotes the midpoint of a concentration-inhibition curve.

In one series the test system is U266. The note with it: U266, 48 hours; read-out: cytotoxicity IC50; cited from earlier work.
The subject of another series is human MM xenograft. The note with it: 15 mg/kg; cited from earlier work.
The test system of a further series is MM.1S. The note with it: 48 hours, read-out: cytotoxicity IC50; cited from earlier work.
For series [1] the following is noted: human, in vivo; cited from earlier work.
A further series deals with MM.1R. To be noted: 48 hours, read-out: cytotoxicity IC50; cited from earlier work.
Series [2] has as its system peripheral blood mononuclear cells (PBMNC). To be noted: cited from earlier work.
In the next series the test system is MCF-7. To be noted: read-out: antiproliferative IC50; cited from earlier work.
In a further series the test system is non-CDK kinases. The note with it: with the exception of GSK3β; cited from earlier work.
Series [3] in a line: Toxicity study in mice: toxicokinetics, plasma AT7519 concentration. Format: in vivo, Male mice (BABL/c). The note with it: for plasma AT7519 exposures compared with AT7519 dosing: i.v., compound 11 0.062 mmol/kg, compound 12 0.124 mmol/kg, AT7519 0.031 mmol/kg. The procedure: (§1) Male mice (BABL/c) of 20 to 22 g were maintained under standard conditions and randomized into groups. […] Doses were calculated and expressed in mmol/kg-body weight, and drug tolerability, pharmacokinetics, and body weight effect were assessed.
Blood samples were collected at 2 min, 10 min, 1 h, and 4 h. Concentration of T7519 was analyzed in each sample using LC-MS/MS method. The results are summarized in Table 3, and the concentration-time curves are illustrated in FIG. 1.

Series [4] is described as follows: Toxicokinetic study in rats: dose exploration. The note with it: rat, i.v., one animal. Format: in vivo, Male SD (Sprague Dawley) rats. The procedure:
(§2) Male SD (Sprague Dawley) rats of body weight 220 to 240 g were maintained under standard conditions and randomized into three groups. On day 0 (initial day), all the animals were given one of the three compounds intravenously. Dose was calculated in mmol/kg.
(a) Dose exploration: One animal from each group was given the preset high dose of each compound.

The nature of series [5]: Toxicokinetic study in rats: TK study, plasma AT7519 concentration. The format is in vivo, Male SD (Sprague Dawley) rats. The note with it: male, Sprague-Dawley, iv; rat plasma, I.V., 0.039 mmol/kg. The procedure:
as §2
(b) TK study: The remaining animals were randomized into three groups, with 6 in each group. […] TK analysis was conducted as follows: Blood samples were collected at time points of 2 min, 10 min, 1 h, 2 h, and 6 h into sample tube (heparinized).

The subject of series [6] is HT29 colon cancer xenograft. The note with it: 9.1 mg/kg twice daily, early-stage and advanced-stage s.c. tumors; cited from earlier work.
Another series relates to SW620. To be noted: read-out: antiproliferative IC50; cited from earlier work.
A short description of series [7]: Toxicity study in mice: body weight after a single i.v. dose. The format is in vivo, Male mice (BABL/c). The procedure:
as §1
Clinical observations were made in the following schedule: continuous observation in the first four hours after dosing, and then twice daily, at one week time, and at day 14. The parameters for observation included animal's physical and mental behaviors, autonomous activity, hair, gland secretion, feces, and death. Body temperature was taken at pre-dosing, and on days 3, 5, 7, and 10 post-dosing.
The body weights of the animals are summarized in Table 4, and the trend lines for animal body weight changes in each group are given in FIG. 2. The body weight was average weight of all the animals in the group from a single measurement.

Series [8] has as its system HCT116 colon cancer xenograft. The note with it: 9.1 mg/kg twice daily, early-stage and advanced-stage s.c. tumors; cited from earlier work.
A short description of series [9]: Toxicity study in mice: tolerability after i.v. administration. The format is in vivo. The note with it: for toxicity compared with AT7519: 2-fold (11) and 4-fold (12) molar-equivalents of the AT7519 threshold level. The procedure: as §1
For series [10] the following is noted: 32.4 mg/m^2; cited from earlier work.
Where [11] appears, read: male, BALB/c, mouse, plasma, iv, I.V., 0.031 mmol/kg.
Setting [12] is: single i.v. dose 0.031 mmol/kg on day 0, group average.
The mark [13] stands for this setting: single i.v. dose 0.062 mmol/kg on day 0, group average.
Setting [14] is: single i.v. dose 0.124 mmol/kg on day 0, group average.

SMILES strings stand for the structures. “Also recorded” adds a separate entry of the source. Some results are limits rather than exact numbers.

`O=C(NC1CCNCC1)c1n[nH]cc1NC(=O)c1c(Cl)cccc1Cl` [AT7519, 4-(2,6-Dichlorobenzamido)-N-(4-piperidinyl)-1H-pyrazole-3-carboxamide]: the IC50 in the series on U266 was 500 nM. For the same molecule, in the series with human MM xenograft, the median overall survival entry is “prolong the median overall survival” and the tumor growth entry is on record as “inhibit tumor growth”. For the same molecule, the half-inhibitory concentration (IC50) in the series on MM.1S is 500 nM. Moreover, in series [1], the “AEs of CTCAE grade 1 severity” value is 46.7%, the “AEs of CTCAE grade 2 severity” value is 37.8%, the “patients with at least one treatment-related AE” value is 82.1% and the “treatment-emergent AE anorexia” value was 39.3%. In [1], the “treatment-emergent AE constipation” value is given as 32.1%, the “treatment-emergent AE fatigue” value is 42.9%, the “treatment-emergent AE hypotension” value is given as 25.0% and the “treatment-emergent AE nausea” value was 50.0%. For the same molecule, in series [1], the “treatment-emergent AE peripheral edema” value is recorded as 25.0%, the “treatment-emergent AE pyrexia” value is recorded as 25.0% and the “treatment-emergent AE vomiting” value is 39.3%. Also, the IC50 in the series on MM.1R was over 2000 nM. Further, the “cytotoxicity in PBMNC” value in series [2] is “does not induce cytotoxicity”. In addition, the concentration for half-maximal inhibition (IC50) with MCF-7 is 40 nM. In addition, the “activity against all non-CDK kinases” value in the series with non-CDK kinases is “inactive”. Further, in [3] (setting [11]), the concentration at 2 min was found to be 10200 ng/mL, the concentration at 10 min is 1840 ng/mL, the concentration at 1 h is 489 ng/mL and the concentration at 4 h was 47 ng/mL. The Animal death result in series [4] (0.049 mmol/kg) was “already at their lethal doses; also recorded: Died immediately post-dosing”. For the same molecule, in series [5], the concentration at 2 min was 19100 ng/mL, the concentration at 10 min amounted to 4600 ng/mL, the concentration at 1 h amounted to 814 ng/mL and the concentration at 4 h was 554 ng/mL. This molecule had a concentration at 6 h in series [5] of 148 ng/mL. Also, the effect on tumors entry in series [6] was “tumor regression”. In addition, the IC50 in the series on SW620 was 940 nM. In series [7] (setting [12]), the “Body weight (g) Day 0” value is listed as 19.44 g, the “Body weight (g) Day 1” value was 19.53 g, the “Body weight (g) Day 2” value turned out to be 19.45 g and the “Body weight (g) Day 4” value was 20.94 g. Further, in series [7] (setting [12]), the “Body weight (g) Day 7” value was determined as 20.83 g and the “Body weight (g) Day 10” value was found to be 20.63 g. Further, the effect on tumors result in series [8] is listed as “tumor regression”. The threshold lethal dose in [9] (male, BALB/c, mouse, in vivo, iv) stood at 0.031 mmol/kg. For the same molecule, the “Death rate (%)” value in [9] (mice, i.v., 0.031 mmol/kg) came out at 20%. This molecule registered a Number of deaths in [9] (mice, i.v., 0.031 mmol/kg, 20 animals in group) of 4. Moreover, the “Death rate (%)” value in series [9] (mice, i.v., 0.039 mmol/kg) is recorded as 100%. Besides, in series [10], the “DLT among the initial three patients” value was “one patient experienced DLT (grade 3 fatigue)”; the “DLT in two additional patients” value was “both of whom experienced DLTs (febrile neutropenia and grade 3 hypokalemia and mucositis)”.

For the molecule `O=C(NC1CCNCC1)c1nn(COP(=O)([O-])[O-])cc1NC(=O)c1c(Cl)cccc1Cl.[Na+].[Na+]` [Compound 11], the “plasma AT7519 exposures compared with AT7519 dosing” value in [3] is listed as “much higher”. In series [4] (0.055 mmol/kg, listed as compound 11, phosphate disodium Salt), the Animal death result was “already at their lethal doses”. For the same molecule, the Animal death result in series [4] (0.055 mmol/kg, phosphate disodium Salt) is given as “Died at 2 min post-dosing”. Further, in series [7] (setting [13]), the “Body weight (g) Day 0” value is 19.16 g, the “Body weight (g) Day 1” value was determined as 18.58 g, the “Body weight (g) Day 2” value is 18.83 g and the “Body weight (g) Day 4” value is given as 19.95 g. In addition, in series [7] (setting [13]), the “Body weight (g) Day 7” value was determined as 20.16 g and the “Body weight (g) Day 10” value is reported as 20.52 g. The “Death rate (%)” value in [9] (mice, i.v., 0.062 mmol/kg) is given as 0%. Moreover, in [9] (mice, i.v.), the “toxicity compared with AT7519” value is recorded as “much less toxic than AT7519”.

For `COC(=O)[C@H](C)NP(=O)(Oc1ccccc1)N1CCC(NC(=O)c2n[nH]cc2NC(=O)c2c(Cl)cccc2Cl)CC1` (stereo partly drawn) [Compound 12, N-((4-(4-(2,6-dichlorobenzamido)-1H-pyrazole-3-carboxamido)-1-piperidinyl)(phenoxy)phosphinyl)-L-alanine methyl Ester], in series [3], the “plasma AT7519 exposures compared with AT7519 dosing” value is “much higher”. The Animal death result in series [4] (0.125 mmol/kg) is listed as “Behaved normally”. For the same molecule, the Animal death entry in series [4] (0.125 mmol/kg, listed as compound 12) was “did not induce the animal death”. In series [7] (setting [14]), the “Body weight (g) Day 0” value was determined as 19.75 g, the “Body weight (g) Day 1” value came to 18.70 g, the “Body weight (g) Day 2” value is 19.17 g and the “Body weight (g) Day 4” value worked out at 19.95 g. Besides, in [7] (setting [14]), the “Body weight (g) Day 7” value is reported as 20.79 g and the “Body weight (g) Day 10” value stood at 21.30 g. Moreover, the “Death rate (%)” value in series [9] (mice, i.v., 0.124 mmol/kg) worked out at 0%. In addition, in series [9] (mice, i.v.), the “toxicity compared with AT7519” value was “much less toxic than AT7519”.

The values above are taken from patent US11725020B2, “Prodrugs of a CDK inhibitor for treating cancers” (priority 2019, dated 2023).
